Each structure is given as a SMILES string.

Our source for the inhibition and IC50 values is US20200247800A1, “SUBSTITUTED BICYCLIC HETEROCYCLIC COMPOUNDS AS NADPH OXIDASE INHIBITORS” (Glenmark Pharmaceuticals S.A., priority 2017, published 2020).

The target of this test is T1, human NOX4 (Homo sapiens, UniProt Q9NPH5).
T1 construct: expressed in transfected cells; membrane fraction used
T1 sequence (Q9NPH5 1-578): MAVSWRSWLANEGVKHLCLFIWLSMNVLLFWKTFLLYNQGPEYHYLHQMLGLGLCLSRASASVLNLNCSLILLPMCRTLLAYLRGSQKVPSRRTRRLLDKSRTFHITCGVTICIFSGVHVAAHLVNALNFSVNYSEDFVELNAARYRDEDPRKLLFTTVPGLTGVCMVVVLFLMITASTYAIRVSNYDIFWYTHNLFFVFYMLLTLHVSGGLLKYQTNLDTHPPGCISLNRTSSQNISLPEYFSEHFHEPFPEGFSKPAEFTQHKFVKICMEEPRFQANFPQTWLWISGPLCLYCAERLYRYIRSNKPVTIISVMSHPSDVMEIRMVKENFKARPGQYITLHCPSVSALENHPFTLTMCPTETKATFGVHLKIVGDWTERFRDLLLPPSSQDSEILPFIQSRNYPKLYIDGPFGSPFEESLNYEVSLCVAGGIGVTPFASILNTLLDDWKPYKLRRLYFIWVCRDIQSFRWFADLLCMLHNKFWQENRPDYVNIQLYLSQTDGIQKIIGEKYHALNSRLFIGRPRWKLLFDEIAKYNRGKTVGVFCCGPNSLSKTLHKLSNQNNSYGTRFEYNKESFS
T1 sequence (P13498 1-195 partner): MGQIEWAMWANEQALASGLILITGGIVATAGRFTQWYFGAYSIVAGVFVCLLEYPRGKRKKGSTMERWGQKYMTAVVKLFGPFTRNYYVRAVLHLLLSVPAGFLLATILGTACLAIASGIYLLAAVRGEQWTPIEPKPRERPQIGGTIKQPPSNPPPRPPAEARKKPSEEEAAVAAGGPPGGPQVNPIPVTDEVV
In words: Cell free membrane based in vitro NOX4 assay: H2O2 production by membranes expressing human NOX4, measured with Amplex Red. Format: biochemical. The note with it: for inhibition at 1 µM: 1.0 μM compound, read-out: Percentage inhibition at 1.0 μM; for inhibition at 10 µM: 10.0 μM compound, read-out: Percentage inhibition at 10.0 μM; for IC50: class symbols. The essentials:
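Membranes from HEK cells stably overexpressing human NOX4 were preincubated 20 min with inhibitor in pH 7.4 HEPES buffer containing HRP and Amplex Red, then NADPH was added. H2O2 was followed for 10 min by fluorescence (ex 544/em 590 nm). IC50 from nonlinear regression of % maximal uninhibited response.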

A word on the inhibition: it is the relative decrease from the control value, in per cent. As a reminder, the IC50 is the concentration at which inhibition is half-maximal. A higher IC50 goes with weaker potency. Regarding `O=c1c(O)c(-c2c(F)cccc2F)[nH]c2[nH]nc(C(F)(F)F)c12` [Example 98, 6-(2,6-Difluorophenyl)-5-hydroxy-3-(trifluoromethyl)-1H-pyrazolo[3,4-b]pyridin-4(7H)-one], the inhibition at 1 µM stood at 86.4%, the inhibition at 10 µM came out at 93.4% and the IC50 was in the range of 50 to 100 nM.
On the same counts, the results for `CCn1nc(C(F)F)c2c(=O)c(O)c(-c3c(F)cccc3F)[nH]c21` [Example 99, 3-(Difluoromethyl)-6-(2,6-difluorophenyl)-1-ethyl-5-hydroxy-1H-pyrazolo[3,4-b]pyridin-4(7H)-one] are 71.3%, 85.1% and > 150 nM.
On to `CCn1nc(C(F)(F)F)c2c(=O)c(O)c(-c3c(F)cccc3F)[nH]c21` [Example 100, 6-(2,6-Difluorophenyl)-1-ethyl-5-hydroxy-3-(trifluoromethyl)-1H-pyrazolo[3,4-b]pyridin-4(7H)-one], for which the inhibition at 1 µM amounted to 66.7%, the inhibition at 10 µM was 84.8% and the IC50 was > 150 nM.
`CCn1cnc2c(=O)c(O)c(-c3c(F)cccc3F)[nH]c21` [Example 101, 5-(2,6-Difluorophenyl)-3-ethyl-6-hydroxy-3H-imidazo[4,5-b]pyridin-7(4H)-one]: the inhibition at 1 µM turned out to be 69.7%, the inhibition at 10 µM was found to be 88.6% and the IC50 is > 150 nM.
With `COCc1nn(C)c2[nH]c(-c3c(F)cccc3F)c(O)c(=O)c12` [Example 102, 6-(2,6-Difluorophenyl)-5-hydroxy-3-(methoxymethyl)-1-methyl-1H-pyrazolo[3,4-b]pyridin-4(7H)-one], the inhibition at 1 µM is 86.2%, the inhibition at 10 µM amounted to 91.5% and the IC50 lay in the range of 50 to 100 nM.
Consider `CCc1nn(CC)c2[nH]c(-c3c(F)cccc3F)c(O)c(=O)c12` [Example 103, 6-(2,6-Difluorophenyl)-1,3-diethyl-5-hydroxy-1,7-dihydro-4H-pyrazolo[3,4-b]pyridin-4-one], for which the inhibition at 1 µM stood at 99.4%, the inhibition at 10 µM is 100% and the IC50 was < 50 nM.
With `CCn1nc(C)c2c(=O)c(O)c(-c3cccc(C(F)(F)F)c3F)[nH]c21` [Example 104, 1-Ethyl-6-[2-fluoro-3-(trifluoromethyl)phenyl]-5-hydroxy-3-methyl-1,7-dihydro-4H-pyrazolo[3,4-b]pyridin-4-one], the inhibition at 1 µM was found to be 99.8%, the inhibition at 10 µM was determined as 96.9% and the 50% inhibitory concentration (IC50) is 100 to 150 nM.
In the case of `CCn1ncc2c(=O)c(O)c(-c3c(F)cccc3F)[nH]c21` [Example 105, 6-(2,6-Difluorophenyl)-1-ethyl-5-hydroxy-1,7-dihydro-4H-pyrazolo[3,4-b]pyridin-4-one], the inhibition at 1 µM was 99.1%, the inhibition at 10 µM is 100% and the IC50 is > 150 nM.
The matching figures for `Cc1n[nH]c2[nH]c(-c3c(F)cccc3F)c(O)c(=O)c12` [Example 106, 6-(2,6-Difluorophenyl)-5-hydroxy-3-methyl-1,7-dihydro-4H-pyrazolo[3,4-b]pyridin-4-one]: 100%, 100% and 50 to 100 nM.
As for `CCn1nc(C)c2c(=O)c(O)c(-c3ccccc3F)[nH]c21` [Example 107, 1-Ethyl-6-(2-fluorophenyl)-5-hydroxy-3-methyl-1,7-dihydro-4H-pyrazolo[3,4-b]pyridin-4-one], the inhibition at 1 µM worked out at 70.8%, the inhibition at 10 µM was 61.2% and the IC50 is > 150 nM.
Turning to `Cc1nn(CC(C)C)c2[nH]c(-c3c(F)cccc3F)c(O)c(=O)c12` [Example 108, 6-(2,6-Difluorophenyl)-5-hydroxy-1-isobutyl-3-methyl-1H-pyrazolo[3,4-b]pyridin-4(7H)-one], the inhibition at 1 µM amounted to 70.7%, the inhibition at 10 µM is 77.9% and the IC50 was 50 to 100 nM.
`CCn1nc(C(F)(F)F)c2c(=O)c(O)c(-c3ccccc3Cl)[nH]c21` [Example 109, 6-(2-Chlorophenyl)-1-ethyl-5-hydroxy-3-(trifluoromethyl)-1H-pyrazolo[3,4-b]pyridin-4(7H)-one]: the inhibition at 1 µM was found to be 60.5%, the inhibition at 10 µM was found to be 82.1% and the IC50 is > 150 nM.
The matching figures for `CCn1nc(C)c2c(=O)c(O)c(-c3ccccc3OC)[nH]c21` [Example 110, 1-Ethyl-5-hydroxy-6-(2-methoxyphenyl)-3-methyl-1H-pyrazolo[3,4-b]pyridin-4(7H)-one]: 60.5%, 63% and > 150 nM.
On to `CC(C)Cn1nc(C(F)(F)F)c2c(=O)c(O)c(-c3c(F)cccc3F)[nH]c21` [Example 111, 6-(2,6-Difluorophenyl)-5-hydroxy-1-isobutyl-3-(trifluoromethyl)-1H-pyrazolo[3,4-b]pyridin-4(7H)-one], for which the inhibition at 1 µM was found to be 56.4%, the inhibition at 10 µM is 81.7% and the concentration for half-maximal inhibition (IC50) is > 150 nM.
As for `CCn1nc(C)c2c(=O)c(O)c(-c3ccc(F)cc3)[nH]c21` [Example 112, 1-Ethyl-6-(4-fluorophenyl)-5-hydroxy-3-methyl-1,7-dihydro-4H-pyrazolo[3,4-b]pyridin-4-one], the inhibition at 1 µM stood at 44.1%.
As for `Cn1nc(-c2ccc(F)cc2)c2c(=O)c(O)c(-c3c(F)cccc3F)[nH]c21` [Example 113, 6-(2,6-Difluorophenyl)-3-(4-fluorophenyl)-5-hydroxy-1-methyl-1H-pyrazolo[3,4-b]pyridin-4(7H)-one], the inhibition at 1 µM worked out at 91.3%, the inhibition at 10 µM amounted to 92.3% and the half-inhibitory concentration (IC50) fell in the range of 50 to 100 nM.
Consider `COc1ccc(-c2[nH]c3c(c(C)nn3C3CC3)c(=O)c2O)c(F)c1` [Example 114, 1-Cyclopropyl-6-(2-fluoro-4-methoxyphenyl)-5-hydroxy-3-methyl-1H-pyrazolo[3,4-b]pyridin-4(7H)-one], for which the inhibition at 1 µM amounted to 61%, the inhibition at 10 µM turned out to be 69.9% and the half-inhibitory concentration (IC50) is > 150 nM.
Take `Cn1nc(Cc2ccccc2)c2c(=O)c(O)c(-c3c(F)cccc3F)[nH]c21` [Example 115, 3-Benzyl-6-(2,6-difluorophenyl)-5-hydroxy-1-methyl-1H-pyrazolo[3,4-b]pyridin-4(7H)-one]: the inhibition at 1 µM amounted to 76.7%, the inhibition at 10 µM turned out to be 80.8% and the IC50 was 100 to 150 nM.
Turning to `CCn1nc(C)c2c(=O)c(O)c(-c3ccc(F)c(C(F)(F)F)c3F)[nH]c21` [Example 116, 6-(2,4-Difluoro-3-(trifluoromethyl)phenyl)-1-ethyl-5-hydroxy-3-methyl-1H-pyrazolo[3,4-b]pyridin-4(7H)-one], the inhibition at 1 µM was 78.6%, the inhibition at 10 µM is 73% and the IC50 was > 150 nM.
Regarding `Cn1nc(N2CCOCC2)c2c(=O)c(O)c(-c3c(F)cccc3F)[nH]c21` [Example 117, 6-(2,6-Difluorophenyl)-5-hydroxy-1-methyl-3-morpholino-1H-pyrazolo[3,4-b]pyridin-4(7H)-one], the inhibition at 1 µM worked out at 6.79% and the inhibition at 10 µM came to 15.6%.
Take `CCn1nc(C)c2c(=O)c(O)c(-c3c(F)cc(OC)cc3F)[nH]c21` [Example 118, 6-(2,6-Difluoro-4-methoxyphenyl)-1-ethyl-5-hydroxy-3-methyl-1H-pyrazolo[3,4-b]pyridin-4(7H)-one]: the inhibition at 1 µM was determined as 78.8%, the inhibition at 10 µM turned out to be 77.5% and the IC50 was in the range of 50 to 100 nM.
Regarding `CCn1nc(C)c2c(=O)c(O)c(-c3ccc(N)cc3F)[nH]c21` [Example 119, 6-(4-Amino-2-fluorophenyl)-1-ethyl-5-hydroxy-3-methyl-1,7-dihydro-4H-pyrazolo[3,4-b]pyridin-4-one], the inhibition at 1 µM is 66.9% and the IC50 was > 150 nM.
The matching figures for `CCn1nc(C)c2c(=O)c(O)c(-c3ccc(OCCOC)cc3F)[nH]c21` [Example 120, 1-Ethyl-6-[2-fluoro-4-(2-methoxyethoxy)phenyl]-5-hydroxy-3-methyl-1,7-dihydro-4H-pyrazolo[3,4-b]pyridin-4-one]: 64.8% and > 150 nM.
In the case of `CCn1nc(C)c2c(=O)c(O)c(-c3ccc(OCC4CC4)cc3F)[nH]c21` [Example 121, 6-[4-(Cyclopropylmethoxy)-2-fluorophenyl]-1-ethyl-5-hydroxy-3-methyl-1,7-dihydro-4H-pyrazolo[3,4-b]pyridin-4-one], the inhibition at 1 µM came to 70.2% and the IC50 was > 150 nM.
`CCn1nc(CC(C)C)c2c(=O)c(O)c(-c3c(F)cccc3F)[nH]c21` [Example 122, 6-(2,6-Difluorophenyl)-1-ethyl-5-hydroxy-3-(2-methylpropyl)-1,7-dihydro-4H-pyrazolo[3,4-b]pyridin-4-one]: the inhibition at 1 µM stood at 72.7%, the inhibition at 10 µM amounted to 75.4% and the IC50 was > 150 nM.
